Data published in patent EP1874311B1, “A METHOD FOR PREVENTING, DELAYING OR REVERTING ABNORMAL AMYLOID DEPOSITION” (Research & Innovation S.p.A., priority 2005, dated 2006).
Read-outs that look alike come from different tables or passages of the source. Marks after values point to notes of the source that are not given here.

Columns and labels:
H4/APP cells = experiment: Secretion of total beta-amyloid into culture medium of H4/APP cells (ELISA); type: cell-based, Human; conditions: for activity at 10 µM / activity at 30 µM: read-out: beta-amyloid concentration in culture medium; for beta-amyloid concentration in culture medium: h4/app cells, 120 min
Protocol: Human neuroglioma (H4) cells, stably transfected with the gene codifying for the human protein APP695 having mutations related to Alzheimer disease, have been used.
Cells were grown in OPTI-MEM containing 10% FBS (foetal bovine serum), hygromycin (0.2 mg/ml) and blasticidine (0.002 mg/ml).
The Aβ peptide in cells is produced by the sequential processing of beta- and gamma-secretases proteases and is then secreted in the culture medium.
Peptide concentration in the extracellular medium was measured using a specific ELISA methodology.
Confluent H4/APP cells where incubated for 2 h with the vehicle (0.1 % DMSO) or with nicardipine at different concentrations (3µM, 10µM, 30µM), beta-amyloid concentration in culture medium is expressed as % control

TG2576 mice = experiment: Plasma amyloidogenic Aβ peptides in TG2576 mice after i.p. administration (ELISA); type: in vivo; conditions: 3 hours after 10 mg/kg i.p.; for Aβ1-42 (%) / Total Aβ (%): before treatment = 100
Protocol: The selected dihydropyridine, nicardipine (see table 2) as well as nimodipine were administered, in TG2576 animals, at dose of 10 mg/Kg i.p. Animals were bleed before treatment for assessment of basal circulating Aβ peptides as well as 3 hours post-treatment. Determination of blood amyloidogenic Aβ peptide concentration was performed using ELISA technique.
Table 2 Levels of the amyloidogenic peptides in plasma of TG2576 mice before and 3 hours following administration of the exemplified dihydropyridines

[1] = Homo sapiens, 10µM, 2 h incubation, confluent H4/APP cells, vehicle = 100
[2] = Homo sapiens, 30µM, 2 h incubation, confluent H4/APP cells, vehicle = 100

COC(=O)C1=C(C)NC(C)=C([N+](=O)[O-])C1c1ccccc1C(F)(F)F (stereo not shown) [BayK 8644]
activity at 10 µM (H4/APP cells; [1]): 98%
activity at 30 µM (H4/APP cells; [2]): 96%
beta-amyloid content in culture media from H4/APP cells (H4/APP cells; result in words): did not affect

COCCOC(=O)C1=C(C)NC(C)=C(C(=O)OC(C)C)C1c1cccc([N+](=O)[O-])c1 (stereo not shown) [Nimodipine, nimodipine]
Aβ1-42 (%) (TG2576 mice): 156%
Total Aβ (%) (TG2576 mice): 87%
Total Aβ (pM) (TG2576 mice; n=7): 759,1±27,0 pM

COC(=O)C1=C(C)NC(C)=C(C(=O)OCCCN2CCC(c3ccccc3)(c3ccccc3)CC2)C1c1cccc([N+](=O)[O-])c1 (single isomer, unassigned; (+)) [(+)Niguldipine, (+)niguldipine]
activity at 10 µM (H4/APP cells; Homo sapiens, 2 h): 71%
activity at 30 µM (H4/APP cells; Homo sapiens, 2 h): 43%
inhibition at 30 µM (H4/APP cells; Homo sapiens, read-out: inhibition of the extracellular amount of Aβ peptides): 57%

COC(=O)C1=C(C)NC(C)=C(C(=O)OCCN(C)Cc2ccccc2)C1c1cccc([N+](=O)[O-])c1 (stereo not shown) [Nicardipine, nicardipine]
activity at 10 µM (H4/APP cells; [1]): 62%
activity at 30 µM (H4/APP cells; [2]): 58%
Aβ1-42 (%) (TG2576 mice): 176%
Total Aβ (%) (TG2576 mice): 170%

COC(=O)C1=C(C)NC(C)=C(C(=O)OCCCN2CCC(c3ccccc3)(c3ccccc3)CC2)C1c1cccc([N+](=O)[O-])c1 (single isomer, unassigned; (-)) [(-)Niguldipine, (-)niguldipine]
inhibition of the extracellular amount of Aβ peptides (H4/APP cells; 30 µM): 53%
beta-amyloid concentration in culture medium (H4/APP cells; 10 µM): 68* % control
beta-amyloid concentration in culture medium (H4/APP cells; 30 µM): 47* % control
